Read-outs that look alike come from different tables or passages of the source.
Molecular target: T1, human M1 receptor (Homo sapiens, UniProt P11229)
T1 construct: host or cells: CHO-K1
T1 sequence (P11229 1-460): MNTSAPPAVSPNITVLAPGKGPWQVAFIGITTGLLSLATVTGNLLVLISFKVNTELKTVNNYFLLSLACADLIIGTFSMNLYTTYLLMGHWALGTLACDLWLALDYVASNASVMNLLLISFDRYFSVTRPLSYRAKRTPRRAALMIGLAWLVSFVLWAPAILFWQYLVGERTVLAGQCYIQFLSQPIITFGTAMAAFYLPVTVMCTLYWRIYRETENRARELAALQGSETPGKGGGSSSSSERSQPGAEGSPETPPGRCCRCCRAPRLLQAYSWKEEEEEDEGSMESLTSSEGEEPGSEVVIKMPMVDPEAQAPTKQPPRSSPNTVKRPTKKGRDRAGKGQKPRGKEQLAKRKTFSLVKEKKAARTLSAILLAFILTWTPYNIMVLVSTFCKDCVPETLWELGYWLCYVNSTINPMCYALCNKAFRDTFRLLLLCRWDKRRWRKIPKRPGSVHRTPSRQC
Assay: Calcium mobilization assay, CHO-K1 cells stably expressing hM1 (high throughput, FDSS 6000)
Type: cell-based
Settings: for Emax: CHO-K1, read-out: Efficacy (% Max ACh)
Source text: Chinese hamster ovary (CHO-K1) cells stably expressing rat (r)M1 were purchased from the American Type Culture Collection and cultured according to their indicated protocol. CHO cells stably expressing human (h)M2, hM3, and hM5 were described previously (Levey et al., 1991); hM1 and hM4 cDNAs were purchased from Missouri S&T cDNA Resource; rM4 cDNA was provided by T. I. Bonner (National Institutes of Health, Bethesda, Md.). hM1, hM4, and rM4 cDNAs were used to stably transfect CHO-K1 cells purchased from the American Type Culture Collection using Lipofectamine2000. To make stable hM2, hM4 and rM4 cell lines for use in calcium mobilization assays, these cells also were stably transfected with a chimeric G-protein (Gqi5) (provided by B. R. Conklin, University of California, San Francisco) using Lipofectamine 2000. rM1, hM3, and hM5 cells were grown in Ham's F-12 medium containing 10% heat-inactivated fetal bovine serum (FBS), 20 mM HEPES, and 50 μg/mL G418 sulfate. hM2-Gqi5 and hM4-Gqi5 cells were grown in the same medium also containing 500 μg/mL Hygromycin B. Stable rM4-Gqi5 cells were grown in DMEM containing 10% heat-inactivated FBS, 20 mM HEPES, 400 μg/mL G418 sulfate, and 500 μg/mL Hygromycin B. The rat M1 Y381A orthosteric mutant receptor cDNA was generated using the Quik-Change site-directed mutagenesis kit (Stratagene) and verified by sequencing. CHO-K1 cells were stably transfected with this cDNA using Lipofectamine2000 and screened for expression based on calcium mobilization in response to the allosteric M1 agonist N-desmethylclozapine.
For high throughput measurement of agonist-evoked increases in intracellular calcium, CHO-K1 cells stably expressing muscarinic receptors were plated in growth medium lacking G418 and hygromycin at 15,000 cells/20 μL/well (hM1, hM2-Gqi5, hM3, hM4-Gq15, and hM5) in Greiner 384-well black-walled, tissue culture (TC)-treated, clear-bottom plates (VWR). Cells were incubated overnight at 37° C. and 5% CO2. The next day, cells were washed using an ELX 405 (BioTek) with three washes (50 μL) of assay buffer then aspirated to 15 μL. Next, 5 μL of 8 μM Fluo-4/acetoxymethyl ester (Invitrogen, Carlsbad, Calif.) prepared as a 2.3 mM stock in DMSO and mixed in a 1:1 ratio with 10% (w/v) Pluronic F-127 and diluted in assay buffer was added to the wells and the cell plates were incubated for 45 min at 37° C. and 5% CO2. Dye was removed by washing with the ELX 405 (three 50 μL washes of assay buffer) then aspirated to 20 μL. Agonist and compound master plates were formatted in an 11 point CRC format (1:3 dilutions) in 100% DMSO with a starting concentration of 10 mM using the BRAVO liquid handler (Agilent). Test compound CRCs were then transferred to daughter plates ([…]) using the Echo acoustic plate reformatter (Labcyte, Sunnyvale, Calif.) and then diluted into assay buffer (40 μL) to a 2× stock using a Thermo Fisher Combi (Thermo Fisher Scientific, Waltham, Mass.). Calcium flux was measured using the Functional Drug Screening System (FDSS) 6000 (Hamamatsu Corporation, Tokyo, Japan) as an increase in the fluorescent static ratio. 20 μL of Agonist Compounds were applied to cells using the automated system of the FDSS 6000 at 4 s into the 300 s protocol and the data were collected at 1 Hz. Concentration-response curves were generated using a four-parameter logistical equation in XLfit curve fitting software (IDBS, Bridgewater, N.J.) for Excel (Microsoft, Redmond, Wash.) or Prism (GraphPad Software, Inc., San Diego, Calif.).

| SMILES | Emax [%] | EC50 (figure legends FIG. 1.0, 1.1, dose response data, read-out: EC50 for hM1) [nM] | EC50 [nM] | EC50 (human M1, agonist-evoked calcium mobilization in CHO-K1 cells, read-out: Potency (EC50)) [nM] |
| --- | --- | --- | --- | --- |
| CCOC(=O)N1[C@@H]2CC[C@H]1C[C@H](NCCNC(=O)c1ccccc1)C2 [Example 26, ethyl 3-((3-exo)-(2-benzamidoethyl)amino)-8-azabicyclo[3.2.1]octane-8-carboxylate] | 57 | 1200 |  |  |
| CCOC(=O)N1[C@@H]2CC[C@H]1C[C@@H](NCCNC(=O)c1ccccc1)C2 [Example 27, ethyl 3-((3-endo)-(2-benzamidoethyl)amino)-8-azabicyclo[3.2.1]octane-8-carboxylate] | 37 |  | 214 | 210 |

Source: patent US8697691B2, “Alkyl 3-((2-amidoethyl)amino)-8-azabicyclo[3.2.1]octane-8-carboxylate analogs as selective M1 agonists and methods of making and using same” (Vanderbilt University, priority 2009, dated 2014)
